Laboratory results reported in US11180495B2 (Abbisko Therapeutics Co., Ltd., priority 2017, dated 2021).
Where two headings read alike, the source gives them in different places.

Experiments:
[1] = biological target: T1, CSF-1R (Homo sapiens, UniProt P07333); assay: CSF-1R in vitro biochemical kinase study (ADP-Glo assay); conditions: 3.95 nM CSF-1R, 500 μM ATP, 30° C. 60 min, read-out: Enzymatic experiment CSF-1R IC50
T1 construct: 3.95 nM of CSF-1R, 500 μM of ATP and 0.2 mg/mL of polypeptide
Procedure: In the present invention, the inhibitory activity of compounds against the CSF-1R activity was determined by using CSF-1R ADP-Glo assay. The compound-mediated inhibition effect was achieved by inhibiting the production of ADP from consumption of ATP, and the activities of compounds were evaluated by using the ADP-Glo kit (Promega, cat. No. V9101). The specific experimental process was as follows: • 1. The kinase reaction performed in the present invention was carried out in a 384-well plate (Perkinelmer, cat. No. 6007290), and 3.95 nM of CSF-1R, 500 μM of ATP and 0.2 mg/mL of polypeptide (Poly (Glu4, Try1), Sigma, cat. No. P0275) were respectively weighed and added to each well: • 2. following reagents were then added to each well to reach the final reaction system: 40 mM Tris, pH 7.5, 20 mM MgCl2, 0.01% Triton X-100, 0.1 mg/mL BSA, 2.5 mM DTT and 0.1% DMSO; • 3. the reaction was conducted at 30° C. for 60 min; • 4. then an equal volume of stop solution (ADP-Glo) was added to the kinase reaction system; • 5. the mixed solution was incubated at 25° C. for 60 min, and the kinase reaction was then terminated; • 6. a two-fold volume of detection reagent was then added to each well; • 7. the mixed solution was incubated at 25° C. for 30 min; • 8. the compound IC50 value was measured by using a plate reader (Tecan, M1000) and a four-parameter curve was generated in Graphpad Prism. B. KIT/PDGFRA In Vitro Biochemical Kinase Study • 1. Preparation of 1-fold kinase buffer and stop solution • 1.1 1-fold kinase buffer: 50 mM HEPES, pH 7.5, 0.0015% Brij-35. • 1.2 stop solution: 100 mM HEPES, pH 7.5, 0.015% Brij-35, 0.2% Coating Reagent #3 50 mM EDTA • 2. Preparation of compound solution • 2.1 Dilution of compound solution • 1) The final concentration of the compound solution was 40 μM. and the concentration of the prepared stock solution was 50 times of the final concentration, i.e., 2 mM. • 2) 80 μL of 100% DMSO was added to the second well of the 96-well plate, then 20 μL of 10 mM compound solution was added, and thereby 2 mM compound solution was prepared, 60 μL of 100% DMSO was added to other wells, 20 μL of compound was taken from the second well, added to the third well and diluted by 4 times. This serial 4-time dilution was conducted in sequence for the total of 10 concentrations. • 2.2 5-fold compound solution transferred to a reaction plate • 1) 10 μL of solution was taken from each well of the above 96-well plate and added to another 96-well plate, and 90 μL of kinase buffer was added. • 2) 5 μL of solution was taken from the above 96-well plate and added to a 384-well reaction plate. • 2.3 Kinase reaction • 1) KIT/PDGFRA kinase was added to the 1-fold kinase buffer solution to obtain a 2.5-fold kinase solution. • 2) FAM-labeled polypeptide and ATP were added to the 1-fold kinase buffer solution to obtain a 2.5-fold substrate solution. • 3) 10 μL of 2.5-fold kinase solution was added to the 384-well reaction plate, which already contained 5 μL of 5-fold compound in 10% DMSO. And the mixed solution was incubated at room temperature for 10 min. • 4) 10 μL of 2.5-fold substrate solution was added to the 384-well reaction plate. • 5) Kinase reaction and termination: the mixed solution was incubated at 28° C. for a certain period of time, and 25 μL of stop solution was added to stop the reaction. • 2.4 Data reading of Caliper EZ Reader II • 2.5 Calculation of percent inhibition and IC50 • 1) Percent conversion data were copied from the Caliper EZ Reader. • 2) Percent conversion was converted into percent inhibition data, wherein, max referred to percent conversion of the DMSO control, and min referred to percent conversion of the negative control without kinase activity. Percent inhibition=(max−conversion)/(max−min)*100. • 3) The IC50 value was fitted with XLFit excel add-in version 5.4.0.8: Fitting formula: Y=Bottom+(Top−Bottom)/(1+(IC50/X)^HillSlope).

[2] = test system: M-NFS-60 mouse myeloid leukemia lymphocytes; assay: CSF-1R-related cell proliferation experiment (Cell Titer Glo); format: cell-based; conditions: 72 h, M-NFS-60 cells, 3 days, CTG
Procedure: Functional effects of compounds on cell proliferation were evaluated by using Cell Titer Glo (CTG) study in the present invention. M-NFS-60 mouse myeloid leukemia lymphocytes (cat. No. CCBJ078) from National Institutes For Food and Drug Control were cultured in the incubator under conditions of RPMI 1640 (Gibco, cat. No. 11875-119), 10% fetal bovine serum (Gibco, 10099-141), human 10 ng/mL M-CSF macrophage colony-stimulating factor (R&D, cat. No. MVN0915101), 37° C. and 5% CO2. Since ATP is an index for viable cell metabolism, CTG (Promega, #G7573) reagent is a homogeneous detection method for detecting the number of viable cells in the culture by quantifying ATP. Therefore, compound-mediated inhibition for cell proliferation/survival was evaluated by quantifying ATP in cells, and the specific experimental process was as follows: • 1. The cells were plated into a tissue-culture-medium-treated 96-well plate (Costar #3904) with 5,000 cells/well/80 μL fresh culture medium: • 2. 24 hours later, 10 μL culture medium containing testing compound with 10-fold of final concentration was added to each well; • 3. 10 μL of culture medium containing M-CSF with 10-fold of the final concentration was then added to each well: • 4. dosage effect was evaluated by testing the 3-fold serial dilutions of the compound; • 5. after the cells were incubated for 3 days at 37° C. and 5% CO2, the inhibition on cell survival was quantified after 50 μL of CTG was added and the luminescence assay was performed; • 6. the compound concentration leading to half maximal inhibitory (IC50) and the compound concentration leading to absolute half maximal inhibitory (Absolute IC50) were measured by a plate reader (M1000, Tecan) and a four-parameter curve fit in Graphpad Prism 7. D. CSF-1R-Related Cell Proliferation Experiment

[3] = test system: M-07e human cytomegalic leukemia cells; assay: KIT-related cell proliferation experiment (Cell Titer Glo); format: cell-based; conditions: 72 h, M-07e cells, SCF, 3 days, CTG, read-out: Cytological experiment KIT IC50
Procedure: (§1) Functional effects of compounds on the proliferation of several cell lines were evaluated by Cell Titer Glo (CTG) studies in the present invention, and effects of the compounds on the proliferation of different cells were evaluated to determine the selectivity degree of the compounds. In the study, M-07e human cytomegalic leukemia cells (cat. No. CBP60791) from Nanjing Kebai Biotechnology Co., Ltd. were cultured in an incubator under conditions of RPMI1640 (Gibco, cat. No. 11875-119), 20% fetal bovine serum (Gibco, 10099-141), human 10 ng/mL GM-CSF granulocyte macrophage colony-stimulating factors (R&D, cat. No. 215-GM-010), 37° C. and 5% CO2; and Kasumi-1 human acute myeloblastic leukemia cells (cat. No. CBP60524) were cultured in an incubator under conditions of RPMI1640 (Gibco, cat. No. 11875-119), 20% fetal bovine serum (Gibco, 10099-141), 37° C. and 5% CO2; NCI-H1703 human non-small cell lung squamous carcinoma cells (cat. No. CBP60115) were cultured in an incubator under conditions of RPMI1640 (Gibco, cat. No. 11875-119), 10% fetal bovine serum (Gibco, 10099-141), 37° C. and 5% CO2; and MV-4-11 human acute monocytic leukemia cells (cat. No. CBP60522) were cultured in an incubator under conditions of IMDM (Invitrogen, cat. No. 12440053), 20% fetal bovine serum (Gibco, 10099-141), 37° C. and 5% CO2. Since ATP is an index for viable cell metabolism, CTG (Promega, #G7573) reagent is a homogeneous detection method for detecting the number of viable cells in the culture by quantifying ATP. Therefore, compound-mediated inhibition for cell proliferation/survival was evaluated by quantifying ATP content in cells, and the specific experimental process was as follows.
I) M-07e Human Cytomegalic Leukemia Cell: • 1. The cells were plated into a tissue-culture-medium-treated 96-well plate (Costar #3904) with 3500 cells/well/80 μL fresh culture medium, and cultured for 24 hrs; • 2. the next day, 10 μL of culture medium containing testing compound with 10-fold of final concentration was added to each well; • 3.

[4] = test system: MV-4-11 human acute monocytic leukemia cells; assay: FLT3-related cell proliferation experiment (Cell Titer Glo); format: cell-based; conditions: MV4-11, 72 h, MV-4-11 cells, 3 days, CTG, read-out: Cytological experiment FLT3 IC50
Procedure: as §1
III) MV-4-11 Human Acute Monocytic Leukemia Cell • 1.

[5] = test system: NCI-H1703 human non-small cell lung squamous carcinoma cells; assay: PDGFRA-related cell proliferation experiment (Cell Titer Glo); format: cell-based; conditions: 72 h, 3 days, CTG, read-out: Cytological experiment PDGFRA IC50
Procedure: as §1
II) NCI-H1703 Human Non-Small Cell Lung Squamous Carcinoma Cell • 1.

[6] = absolute half maximal inhibitory concentration, read-out: Cytological experiment CSF-1R Absolute IC50
[7] = read-out: Cytological experiment CSF1R IC50

T1 sequence (P07333 20-972): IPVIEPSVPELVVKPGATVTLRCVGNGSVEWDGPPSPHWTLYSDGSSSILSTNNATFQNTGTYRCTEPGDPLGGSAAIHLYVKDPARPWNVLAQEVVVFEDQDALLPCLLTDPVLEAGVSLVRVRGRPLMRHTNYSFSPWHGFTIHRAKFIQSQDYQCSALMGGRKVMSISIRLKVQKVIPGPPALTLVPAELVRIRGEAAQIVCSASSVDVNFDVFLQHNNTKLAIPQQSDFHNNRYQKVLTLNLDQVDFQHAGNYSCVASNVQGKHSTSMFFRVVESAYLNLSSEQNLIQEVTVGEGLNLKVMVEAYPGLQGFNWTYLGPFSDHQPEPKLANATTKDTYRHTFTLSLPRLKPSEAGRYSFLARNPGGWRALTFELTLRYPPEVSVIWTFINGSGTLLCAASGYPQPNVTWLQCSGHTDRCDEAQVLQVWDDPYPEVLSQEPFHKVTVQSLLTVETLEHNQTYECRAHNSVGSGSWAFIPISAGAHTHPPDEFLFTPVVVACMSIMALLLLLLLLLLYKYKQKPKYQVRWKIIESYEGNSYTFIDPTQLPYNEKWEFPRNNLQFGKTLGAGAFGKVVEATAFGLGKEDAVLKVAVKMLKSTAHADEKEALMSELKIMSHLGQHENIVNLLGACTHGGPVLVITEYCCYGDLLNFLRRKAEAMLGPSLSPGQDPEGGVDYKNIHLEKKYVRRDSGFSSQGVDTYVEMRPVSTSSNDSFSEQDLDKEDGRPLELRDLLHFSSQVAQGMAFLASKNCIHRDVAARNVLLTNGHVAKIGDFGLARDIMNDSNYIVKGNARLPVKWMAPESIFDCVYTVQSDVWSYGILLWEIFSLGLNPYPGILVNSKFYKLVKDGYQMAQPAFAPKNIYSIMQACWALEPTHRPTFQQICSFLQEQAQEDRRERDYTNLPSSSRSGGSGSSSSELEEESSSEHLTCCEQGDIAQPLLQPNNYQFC

Row | IC50 [1] | IC50 [2, 6] | IC50 [2, 7] | IC50 [3] | IC50 [4] | IC50 [5] | Structure (SMILES)
1 | 0.0391 µM | 0.0474 µM | 0.0508 µM | – | – | – | COCCOc1cnc2[nH]cc(Cc3ccc(-c4cnc(NC(C)C)[nH]c4=O)nc3C)c2c1 [Example 3, 2-(isopropylamino)-5-(5-((5-(2-methoxyethoxy)-1H-pyrrolo[2,3-b]pyridin-3-yl)methyl)-6-methylpyridin-2-yl)pyrimidin-4(3H)-one]
2 | 0.0481 µM | 0.622 µM | 0.553 µM | – | – | – | Cc1nc(-n2ccc3c(ncn3C(C)C)c2=O)ccc1Cc1c[nH]c2ncc(Cl)cc12 [Example 25, 5-(5-((5-chloro-1H-pyrrolo[2,3-b]pyridin-3-yl)methyl)-6-methylpyridin-2-yl)-1-isopropyl-1,5-dihydro-4H-imidazo[4,5-c]pyridin-4-one]
3 | 0.0193 µM | 0.0399 µM | 0.215 µM | – | – | – | CC(C)Nc1ncc(-c2ccc(Cc3c[nH]c4ncccc34)cn2)c(=O)[nH]1 [Example 2, 5-(5-((1H-pyrrolo[2,3-b]pyridin-3-yl)methyl)pyridin-2-yl)-2-(isopropylamino)pyrimidin-4(3H)-one]
4 | 0.0734 µM | – | – | – | – | – | Cc1nc(-c2cnc(NC(C)C)n(C)c2=O)ccc1C(=O)c1c[nH]c2ncc(Cl)cc12 [Example 11, 5-(5-(5-chloro-1H-pyrrolo[2,3-b]pyridine-3-carbonyl)-6-methylpyridin-2-yl)-2-(isopropylamino)-3-methylpyrimidin-4(3H)-one]
5 | 0.0364 µM | 0.21 µM | 0.235 µM | – | – | – | Cc1nc(-c2cnc(NC(C)C)[nH]c2=O)ccc1Cc1c[nH]c2ncc(OCCO)cc12 [Example 4, 5-(5-((5-(2-hydroxyethoxy)-1H-pyrrolo[2,3-b]pyridin-3-yl)methyl)-6-methylpyridin-2-yl)-2-(isopropylamino)pyrimidin-4(3H)-one]
6 | 0.315 µM | – | – | – | – | – | Cc1nc(-c2cnc(NC(C)C)n(C)c2=O)ccc1C(O)c1c[nH]c2ncc(Cl)cc12 (stereo not drawn) [Example 9, 5-(5-((5-chloro-1H-pyrrolo[2,3-b]pyridin-3-yl)(hydroxy)methyl)-6-methylpyridin-2-yl)-2-(isopropylamino)-3-methylpyrimidin-4(3H)-one]
7 | 0.289 µM | 0.296 µM | 0.315 µM | – | – | – | Cc1nc(-c2cnc(NC(C)C)n(C)c2=O)ccc1C(C)c1c[nH]c2ncc(Cl)cc12 (stereo not drawn) [Example 12, 5-(5-(1-(5-chloro-1H-pyrrolo[2,3-b]pyridin-3-yl)ethyl)-6-methylpyridin-2-yl)-2-(isopropylamino)-3-methylpyrimidin-4(3H)-one]
8 | – | 0.0564 µM | 0.0674 µM | 0.978 µM | 3.04 µM | 3.54 µM | CCN1CCCn2c1ncc(-c1ccc(Cc3c[nH]c4ncccc34)c(C)n1)c2=O [Example 19, 3-(5-((1H-pyrrolo[2,3-b]pyridin-3-yl)methyl)-6-methylpyridin-2-yl)-9-ethyl-6,7,8,9-tetrahydro-4H-pyrimido[1,2-a]pyrimidin-4-one]
9 | 0.168 µM | 0.703 µM | 0.534 µM | – | – | – | Cc1nc(-c2cnc3n(c2=O)CCCN3C)ccc1C(=O)c1c[nH]c2ncccc12 [Example 24, 9-methyl-3-(6-methyl-5-(1H-pyrrolo[2,3-b]pyridine-3-carbonyl)pyridin-2-yl)-6,7,8,9-tetrahydro-4H-pyrimido[1,2-a]pyrimidin-4-one]
10 | 0.331 µM | – | – | – | – | – | COC(c1ccc(-c2cnc(NC(C)C)n(C)c2=O)nc1C)c1c[nH]c2ncc(Cl)cc12 (stereo not drawn) [Example 8, 5-(5-((5-chloro-1H-pyrrolo[2,3-b]pyridin-3-yl)(methoxy)methyl)-6-methylpyridin-2-yl)-2-(isopropylamino)-3-methylpyrimidin-4(3H)-one]
11 | 0.0881 µM | – | – | – | – | – | Cc1nc(-c2cnc(NC(C)C)[nH]c2=O)ccc1C(=O)c1c[nH]c2ncccc12 [Example 6, 2-(isopropylamino)-5-(6-methyl-5-(1H-pyrrolo[2,3-b]pyridine-3-carbonyl)pyridin-2-yl)pyrimidin-4(3H)-one]
